Values belong to the compound of their own block, whether it stands above or below them.
Columns and labels:
[1] = Encapsulation of steroids into PLGA nanoparticles (steroid content by HPLC); type: physicochemical; conditions: for Steroid/nanoparticle (wt %): PLGA nanoparticles
Method: Each mixture was centrifuged at 12,000 rpm for 5 min and the supernatant was discarded to obtain precipitates in the form of zinc-steroids or iron-steroids. […] To each of the resultant solutions, an aqueous solution of zinc acetate was added and the mixture was allowed to stand for 2 hours at room temperature. […] The mixture was then centrifuged at 20,000 G for 20 min. Following the removal of the supernatant, the residue was resuspended in water and the suspension was again centrifuged to wash the nanoparticles. […] Similarly, the amount of water-insoluble steroid was determined for the nanoparticles prepared by different method without metal ions.

[2] = Formation of water-insoluble precipitates of drugs with metal ions (turbidity observed); type: physicochemical; conditions: 20 mM drug in 0.2M Tris-HCl pH 7.8 + equal volume 100 mM metal ion
Method: Compounds shown in Table 1 below were used to as the low-molecular weight, water-soluble and non-peptide drug having phosphate groups. […] The solution was then added to equal volume of 100 mM aqueous solutions of different metal ions. The turbidity of each of the resulting mixtures was observed.

[3] = as above; type: physicochemical; conditions: for Formation of precipitates with metal ions: 3N HCl, 20 mM drug in 0.2M Tris-HCl pH 7.8
inflammatory sites = assay: Accumulation of nanoparticles in inflammatory sites (carrageenin leg edema, fluorescence microscopy); type: in vivo, male Lewis rats; conditions: single tail vein injection 4 hours after carrageenin; 2 hours after administration
Method: Inflammation was induced by injecting 100 μl physiological saline containing 1% carrageenin in the left hind paw of male Lewis rats. After 4 hours, single dosages of rhodamine-encapsulating nanoparticles of two different sizes (200 nm and 500 nm) were injected into a tail vein. 2 hours after administration, the resultant leg edema was cut and cryostat sections were prepared.
As controls, one group was administered with physiological saline and another group with rhodamine alone.

Compound: CCC(=O)OCC(=O)[C@@]1(OC(=O)CC)[C@@H](C)C[C@H]2[C@@H]3CCC4=CC(=O)C=C[C@]4(C)[C@@]3(F)[C@@H](O)C[C@@]21C [BDP, betamethasone dipropionate]
Steroid/nanoparticle (wt %) [1]: 0.47 wt %

Compound: C[C@H]1C[C@H]2[C@@H]3CCC4=CC(=O)C=C[C@]4(C)[C@@]3(F)[C@@H](O)C[C@]2(C)[C@@]1(O)C(=O)COP(=O)(O)O [BP-Fe, betamethasone phosphate]
Steroid/nanoparticle (wt %) [1]: 1.15 wt %

Compound: C[C@@H]1C[C@H]2[C@@H]3CCC4=CC(=O)C=C[C@]4(C)[C@@]3(F)[C@@H](O)C[C@]2(C)[C@@]1(O)C(=O)COP(=O)(O)O [DP-Na, dexamethasone phosphate]
Steroid/nanoparticle (wt %) [1]: 0 wt %

Compound: C[C@@H]1C[C@H]2[C@@H]3CCC4=CC(=O)C=C[C@]4(C)[C@@]3(F)[C@@H](O)C[C@]2(C)[C@@]1(O)C(=O)COP(=O)(O)O [DP-Zn, dexamethasone phosphate]
Steroid/nanoparticle (wt %) [1]: 1.15 wt %

Compound: Naphthyl-phosphate
Formation of precipitates with metal ions ([2]; CuCl2): −
Formation of precipitates with metal ions ([2]; FeCl2): +++
Formation of precipitates with metal ions ([2]; FeCl3): +++
Formation of precipitates with metal ions ([2]; MgCl2): −
Formation of precipitates with metal ions ([2]; NiCl2): −
Formation of precipitates with metal ions ([2]; Zn(CH3COO)2): +++
Formation of precipitates with metal ions ([2]; ZnCl2): +++
Formation of precipitates with metal ions [3]: −

Compound: hydrocortisone phosphate [HP-Na]
Steroid/nanoparticle (wt %) [1]: 0 wt %

The remaining lines, values ahead:

Steroid/nanoparticle (wt %) [1]: 0 wt %
Compound: C[C@H]1C[C@H]2[C@@H]3CCC4=CC(=O)C=C[C@]4(C)[C@@]3(F)[C@@H](O)C[C@]2(C)[C@@]1(O)C(=O)COP(=O)(O)O [BP-Na, betamethasone phosphate]

Steroid/nanoparticle (wt %) [1]: 2.03 wt %
Compound: C[C@H]1C[C@H]2[C@@H]3CCC4=CC(=O)C=C[C@]4(C)[C@@]3(F)[C@@H](O)C[C@]2(C)[C@@]1(O)C(=O)COP(=O)(O)O [BP-Zn, betamethasone phosphate]

Formation of precipitates with metal ions ([2]; CuCl2): +++
Formation of precipitates with metal ions ([2]; FeCl2): +++
Formation of precipitates with metal ions ([2]; FeCl3): +++
Formation of precipitates with metal ions ([2]; MgCl2): −
Formation of precipitates with metal ions ([2]; NiCl2): +
Formation of precipitates with metal ions ([2]; Zn(CH3COO)2): +++
Formation of precipitates with metal ions ([2]; ZnCl2): +++
Formation of precipitates with metal ions [3]: −
Compound: C[C@@H]1C[C@H]2[C@@H]3CCC4=CC(=O)C=C[C@]4(C)[C@@]3(F)[C@@H](O)C[C@]2(C)[C@@]1(O)C(=O)COP(=O)(O)O [Dexamethasone phosphate, dexamethasone phosphate]

Steroid/nanoparticle (wt %) [1]: 0.15 wt %
Compound: CC(=O)OCC(=O)[C@@]1(O)[C@@H](C)C[C@H]2[C@@H]3CCC4=CC(=O)C=C[C@]4(C)[C@@]3(F)[C@@H](O)C[C@@]21C [betamethasone acetate]

Formation of precipitates with metal ions ([2]; CuCl2): +++
Formation of precipitates with metal ions ([2]; FeCl2): +++
Formation of precipitates with metal ions ([2]; FeCl3): +++
Formation of precipitates with metal ions ([2]; MgCl2): −
Formation of precipitates with metal ions ([2]; NiCl2): −
Formation of precipitates with metal ions ([2]; Zn(CH3COO)2): +++
Formation of precipitates with metal ions ([2]; ZnCl2): +++
dispersion state of the nanoparticles ([1]; 500 μl or less of acetone): formed aggregates
dispersion state of the nanoparticles ([1]; 700 μl acetone): remained stably dispersed
Steroid/nanoparticle (wt %) ([1]; zinc precipitate of 5 mg, acetone 700 μl): 7.34 wt %
Steroid/nanoparticle (wt %) ([1]; zinc precipitate of 5 mg, acetone 900 μl): 4.28 wt %
Steroid/nanoparticle (wt %) ([1]; zinc precipitate of 5 mg, acetone 1100 μl): 3.46 wt %
Steroid/nanoparticle (wt %) ([1]; zinc precipitate of 5 mg, acetone 1300 μl): 2.71 wt %
Steroid/nanoparticle (wt %) ([1]; zinc precipitate of 5 mg, acetone 1500 μl): 1.93 wt %
Formation of precipitates with metal ions [3]: −
Compound: C[C@H]1C[C@H]2[C@@H]3CCC4=CC(=O)C=C[C@]4(C)[C@@]3(F)[C@@H](O)C[C@]2(C)[C@@]1(O)C(=O)COP(=O)(O)O [betamethasone phosphate]

Formation of precipitates with metal ions ([2]; CuCl2): +++
Formation of precipitates with metal ions ([2]; FeCl2): +++
Formation of precipitates with metal ions ([2]; FeCl3): +++
Formation of precipitates with metal ions ([2]; MgCl2): −
Formation of precipitates with metal ions ([2]; NiCl2): −
Formation of precipitates with metal ions ([2]; Zn(CH3COO)2): +++
Formation of precipitates with metal ions ([2]; ZnCl2): +++
Formation of precipitates with metal ions [3]: −
molar ratio with respect to zinc ion at which precipitate formation was most significant ([3]; zinc ion, molar ratio varied): approximately 1
Compound: Cc1cc2nc3c(=O)[nH]c(=O)nc-3n(C[C@H](O)[C@H](O)[C@H](O)COP(=O)(O)O)c2cc1C [riboflavin phosphate]

Steroid/nanoparticle (wt %) [1]: 1.05 wt %
Compound: hydrocortisone phosphate [HP-Zn]

accumulation of the nanoparticles in the inflammatory sites (fluorescence in tissue sections) (inflammatory sites): No significant accumulation
Compound: rhodamine

— patent US20060233883A1, “Intravenous nanoparticles for targeting drug delivery and sustained drug release” (priority 2003, published 2006)
